The nature of data set [1]: collision cross section (TIMS, N2 drift gas) of the primary ion; higher = larger gas-phase ion size.
A short description of data set [2]: reversed-phase LC retention time (C18, 15 min MeOH gradient); higher = more hydrophobic / later elution.
Setting [3] is: ionization mode: ESI+, ion species: [M+H]+.
Setting [4] is: ionization mode: ESI-, ion species: [M-H]-.
The mark [5] stands for this setting: ionization mode: ESI+, ion species: [M]+.

The structures appear in SMILES notation.

`C/C=C/C(=O)N(CC)c1ccccc1C` [Crotamiton] registered a collision cross section in data set [1] (setting [3]) of 144.88 Å². In addition, in data set [2] (setting [3]), the “reversed-phase LC retention time” value turned out to be 14 min.

`O=C(O)c1ccccc1Nc1cccc(C(F)(F)F)c1` [Flufenamic acid] gave a collision cross section in data set [1] (setting [4]) of 159.1 Å². In data set [2] (setting [4]), the “reversed-phase LC retention time” value amounted to 14 min.

Molecule `CCOCN(C(=O)CCl)c1c(C)cccc1CC` [Acetochlor] yielded a collision cross section in data set [1] (setting [3]) of 158.08 Å². For the same molecule, the “reversed-phase LC retention time” value in data set [2] (setting [3]) was 15 min.

Regarding `Cn1c(N)nc2c3cccnc3ccc21` [2-Amino-3-methyl-imidazo[4,5-f]quinoline (IQ)], the figures for the collision cross section in data set [1] (setting [3]) and in data set [1] (setting [4]) were 138.89 Å² and 139.48 Å², respectively. Moreover, the “reversed-phase LC retention time” value in data set [2] (setting [3]) worked out at 6.04 min; in data set [2] (setting [4]), 8.79 min.

On to `Nc1nc2c(ncn2COCCO)c(=O)[nH]1` [Acyclovir], for which the collision cross section in data set [1] (setting [3]) is on record as 148.26 Å²; in data set [1] (setting [4]), 146.78 Å². The “reversed-phase LC retention time” value in data set [2] (setting [3]) amounted to 3.16 min; in data set [2] (setting [4]) it was 3.13 min.

In data set [1] (setting [5]), `CCCCCCCCCCCCCC[N+](C)(C)Cc1ccccc1` [Benzyldimethyltetradecylammonium] came in with a collision cross section of 204.79 Å². Also, the “reversed-phase LC retention time” value in data set [2] (setting [5]) was 17 min.

In data set [1] (setting [4]), `CC[C@H](C)[C@H]1O[C@]2(CC[C@@H]1C)C[C@@H]1C[C@@H](C/C=C(\C)[C@@H](O[C@H]3C[C@H](OC)[C@@H](O[C@H]4C[C@H](OC)[C@@H](O)[C@H](C)O4)[C@H](C)O3)[C@@H](C)/C=C/C=C3\CO[C@@H]4[C@H](O)C(C)=C[C@@H](C(=O)O1)[C@]34O)O2` [Ivermectin B1a] yielded a collision cross section of 292.22 Å². Further, in data set [2] (setting [4]), the “reversed-phase LC retention time” value is 19.5 min.

Take `CC(=O)O[C@]1(C(C)=O)CC[C@H]2[C@@H]3C=C(C)C4=CC(=O)CC[C@]4(C)[C@H]3CC[C@@]21C` [Megestrol-17-acetate]: the collision cross section in data set [1] (setting [3]) is 198.3 Å². Further, the “reversed-phase LC retention time” value in data set [2] (setting [3]) was 15.2 min.

In turn, `Cc1ncc([N+](=O)[O-])n1CCO` [Metronidazole] came in with a collision cross section in data set [1] (setting [3]) of 132.43 Å². Also, the “reversed-phase LC retention time” value in data set [2] (setting [3]) is 5.53 min.

Consider `CCCCCCCCCCCC(=O)NCCO` [N-Lauroylethanolamine], for which, in data set [1] (setting [3]), the collision cross section is listed as 175.51 Å². Moreover, the “reversed-phase LC retention time” value in data set [2] (setting [3]) worked out at 16.4 min.

For `CCCCCCOc1ccc(-c2nc(-c3ccccc3)nc(-c3ccccc3)n2)c(O)c1` [2-(4,6-Diphenyl-1,3,5-triazine-2-yl)-5-(hexyloxy)-phenol], in data set [1] (setting [3]), the collision cross section amounted to 221.42 Å². For the same molecule, the “reversed-phase LC retention time” value in data set [2] (setting [3]) amounted to 21.2 min.

Take `O=C(NC(=O)c1c(F)cccc1F)Nc1ccc(Cl)cc1` [Diflubenzuron]: the collision cross section came to 163.34 Å² in data set [1] (setting [3]) and 167.93 Å² in data set [1] (setting [4]). Also, the figures for the “reversed-phase LC retention time” value in data set [2] (setting [3]) and in data set [2] (setting [4]) were 15.1 min and 15.5 min, respectively.

Take `CC(C)(O)c1ccccc1CCC(SCC1(CC(=O)O)CC1)c1cccc(C=Cc2ccc3ccc(Cl)cc3n2)c1` (centres undefined) [Montelukast]: the results for the collision cross section in data set [1] (setting [3]) and in data set [1] (setting [4]) were 243.08 Å² and 244.69 Å², respectively. In addition, the “reversed-phase LC retention time” value stood at 17.7 min in data set [2] (setting [3]) and 17 min in data set [2] (setting [4]).

With `CC(C)(C)CC(C)(C)c1ccc(O)cc1` [4-tert-Octylphenol], the collision cross section in data set [1] (setting [4]) stood at 156.39 Å². In addition, the “reversed-phase LC retention time” value in data set [2] (setting [4]) stood at 17.3 min.

Regarding `O=c1c(-c2ccc(O)cc2)coc2cc(O)cc(O)c12` [Genistein], the collision cross section stood at 160.2 Å² in data set [1] (setting [3]) and 159.59 Å² in data set [1] (setting [4]). For the same molecule, the “reversed-phase LC retention time” value in data set [2] (setting [3]) was found to be 11.9 min; in data set [2] (setting [4]) it was 10.2 min.

`CCN(CCC#N)c1ccc(N=Nc2c(Br)cc([N+](=O)[O-])cc2Br)cc1` [Disperse Orange 61] displayed a collision cross section in data set [1] (setting [3]) of 202.21 Å². For the same molecule, in data set [2] (setting [3]), the “reversed-phase LC retention time” value came out at 16.8 min.

On to `CCC(C)(C)c1cc(-n2nc3ccccc3n2)c(O)c(C(C)(C)CC)c1` [UV-328], for which, in data set [1] (setting [3]), the collision cross section is recorded as 196.56 Å². In addition, the “reversed-phase LC retention time” value in data set [2] (setting [3]) turned out to be 20.1 min.

In the case of `Cc1cccc(C)c1N(Cn1cccn1)C(=O)CS(=O)(=O)O` [Metazachlor ESA], the collision cross section in data set [1] (setting [3]) was determined as 168.61 Å²; in data set [1] (setting [4]), 168.78 Å². In addition, the figures for the “reversed-phase LC retention time” value in data set [2] (setting [3]) and in data set [2] (setting [4]) were 9.52 min and 9.35 min, respectively.

The molecule `NC(=O)/N=C1\SCCN1Cc1ccc(Cl)nc1` [Thiacloprid amide] had a collision cross section in data set [1] (setting [3]) of 159.22 Å². The “reversed-phase LC retention time” value in data set [2] (setting [3]) came to 8.75 min.

Consider `C[C@]12CCC(=O)C=C1CC[C@@H]1[C@@H]2CC[C@@]2(C)[C@H]1CC[C@]2(C)O` [17alpha-Methyltestosterone], for which, in data set [1] (setting [3]), the collision cross section turned out to be 178.22 Å². Also, the “reversed-phase LC retention time” value in data set [2] (setting [3]) is 14.7 min.

`CC(C1CC1)C(O)(Cn1cncn1)c1ccc(Cl)cc1` (centres undefined) [Cyproconazole_1] yielded a collision cross section in data set [1] (setting [3]) of 170.22 Å². In addition, in data set [2] (setting [3]), the “reversed-phase LC retention time” value was determined as 14.4 min.

`CC(C)N(C(=O)CCl)c1ccccc1` [Propachlor] displayed a collision cross section in data set [1] (setting [3]) of 143.81 Å². The “reversed-phase LC retention time” value in data set [2] (setting [3]) came to 13 min.

As to `Clc1ccc2n[nH]nc2c1` [5-Chlorobenzotriazole], in data set [1] (setting [4]), the collision cross section is recorded as 120.9 Å². In data set [2] (setting [4]), the “reversed-phase LC retention time” value amounted to 9.28 min.

In data set [1] (setting [3]), `CCCCc1oc2ccccc2c1C(=O)c1cc(I)c(OCCN(CC)CC)c(I)c1` [Amiodarone] had a collision cross section of 228.68 Å². Besides, the “reversed-phase LC retention time” value in data set [2] (setting [3]) was found to be 16.5 min.

The molecule `COC(=O)Nc1nc2ccccc2[nH]1` [Carbendazim] showed a collision cross section in data set [1] (setting [3]) of 137.16 Å². For the same molecule, the “reversed-phase LC retention time” value in data set [2] (setting [3]) stood at 7.33 min.

On to `COc1cc2ccc(=O)oc2c(O)c1O` [Fraxetin], for which the collision cross section in data set [1] (setting [3]) is 138.67 Å². In data set [2] (setting [3]), the “reversed-phase LC retention time” value amounted to 8.29 min.

For the origin of these results see the supplement of paper PMC12613149.
